What was measured:
Assay type in all cases: in vivo, Male Sprague-Dawley rats
plasma TNF-a = experiment: Plasma TNF-a in LPS-challenged rats; settings: 25 or 50 microgram oral daily over 7 days, LPS 0.5 mg/kg IP 2 hours after last dose, sacrifice four hours later, compared to LPS treated animals
Protocol: (§1) Male Sprague-Dawley rats (175 g) are kept on a 12-h light:dark cycle with food (Harlan-Teklad Rodent Chow, Madison, Wis.) and water provided freely. Animals are administered daily doses of vitamin K2 (MK-7) or saline (control) via oral gavage over 7 days. Stock solutions of vitamin K2 are prepared containing 3.5 g/L HCO-60 and 1 g/L of […] in buffer A (0.15 M NaCl, 0.05 M Tris-HCl, pH 7.5). The K2 is dissolved by sonication during five pulses of 5 set with an amplitude of 6 pm. Solutions thus obtained are clear, homogeneous, and stable. Shortly before vitamin K administration the stock solutions are diluted five times with buffer A, leading to a final HCO-60 concentration of 0.7 g/L. Further dilutions (as required) are made with 0.7 g/L HCO-60 in buffer A. Each dilution step is followed by sonication as described above. In all cases vitamin K2 is administered to the rats in 0.5 mL samples, with either 25 or 50 microgram oral doses.
On the final day (Day 7), rodents are administered vitamin K2 and 2 hours later were given an IP dose of LPS (Escherichia coli serotype 0111:B4, L2630, Sigma) intraperitoneally (0.5 mg/kg of body weight). Four hours later animals are sacrificed.

NFαB p65 = experiment: Immunoblot of phosphorylated p65 in gastrocnemius muscle of LPS-challenged rats; settings: 25 or 50 microgram oral daily over 7 days, LPS 0.5 mg/kg IP, compared to LPS treatment
Protocol: (§2) Male Sprague-Dawley rats (175 g) are kept on a 12-h light:dark cycle with food (Harlan-Teklad Rodent Chow, Madison, Wis.) and water provided freely. Animals are administered daily doses of vitamin K2 (MK-7) or saline (control) via oral gavage over 7 days. Stock solutions of vitamin K2 are prepared containing 3.5 g/L HCO-60 and 1 g/L of […] in buffer A (0.15 M NaCl, 0.05 M Tris-HCl, pH 7.5). The K2 is dissolved by sonication during five pulses of 5 set with an amplitude of 6 pm. Solutions thus obtained are clear, homogeneous, and stable. […]
(§3) Analysis of mTOR Signaling to elFs—Gastrocnemius muscles are weighed and homogenized in 7 volumes of buffer containing 20 mM HEPES (pH 7.4), 100 mM potassium chloride, 0.2 mM EDTA, 2 mM EGTA, 50 mM sodium fluoride, 50 mM glycerophosphate, 0.1 mM phenylmethylsulfonyl fluoride, 1 mM benzamidine, 1 mM dithiothreitol (DTT), and 0.5 mM sodium vanadate. […] Samples are analyzed for the phosphorylation status of 4E-BP 1 (Thr37) and ribosomal protein S6 (Ser 235/236), the anti-phosphospecific antibodies were obtained from Cell Signaling Technology, Beverly, Mass. Additionally, samples are analyzed for phosphorylated IKKα/β (Ser176/180; Cell Signaling Technology) and phosphorylated p65 (Ser536; Cell Signaling Technology).

IKKα/β (Ser176/180) = experiment: Immunoblot of phosphorylated IKKα/β in gastrocnemius muscle of LPS-challenged rats; settings: 25 or 50 microgram oral daily over 7 days, LPS 0.5 mg/kg IP, compared to LPS treatment
Protocol: as §2, §3

[1] = test system: total mixed muscle protein; experiment: Measurement of protein synthesis (fractional rate Ks, radioactive phenylalanine incorporation) in LPS-challenged rats; settings: 25 or 50 microgram oral daily over 7 days, LPS 0.5 mg/kg IP, under conditions of inflammatory sepsis, compared to LPS treatment
Protocol: as §1, with “doses. […]” for “doses.”
Measurement of Protein Synthesis—The fractional rate of synthesis (Ks) is estimated from the rate of incorporation of radioactive phenylalanine into total mixed muscle protein using the specific radioactivity of serum phenylalanine as representative of the precursor pool. […]

4E-BP 1 (Thr37) = experiment: mTOR signaling: 4E-BP1 phosphorylation in gastrocnemius muscle of LPS-challenged rats; settings: 25 or 50 microgram oral daily over 7 days, LPS 0.5 mg/kg IP, compared to LPS treatment
Protocol: as §2, §3

[2] = test system: ribosomal protein S6 (Ser 235/236); experiment: mTOR signaling: ribosomal protein S6 phosphorylation in gastrocnemius muscle of LPS-challenged rats; settings: 25 or 50 microgram oral daily over 7 days, LPS 0.5 mg/kg IP, compared to LPS treatment
Protocol: as §2, §3

CC(C)=CCC/C(C)=C/CC/C(C)=C/CC/C(C)=C/CC/C(C)=C/CC/C(C)=C/CC/C(C)=C/CC1=C(C)C(=O)c2ccccc2C1=O [K2, vitamin K2 (MK-7)]
rise of plasma TNF-a (plasma TNF-a): significant decrease in the rise
NFαB p65 induction (NFαB p65): significant blunting
drop in phosphorlyation for IKKα/β (IKKα/β (Ser176/180)): significant blunting of the drop in phosphorlyation
fractional rate of mixed muscle protein synthesis [1]: greater preservation
decrease in 4E-BPI(Thr-37) phosphorylation (4E-BP 1 (Thr37)): abrogates the decrease
decrease in ribosomal protein S6 phosphorylation [2]: abrogates the decrease
